Patent US20140329177A1, “CYCLIC COMPOUND, METHOD FOR PRODUCING SAME, RADIATION-SENSITIVE COMPOSITION, AND RESIST PATTERN FORMATION METHOD” (MITSUBISHI GAS CHEMICAL COMPANY, INC., priority 2011, published 2014)

Assay: Solubility test of compound in safe solvent
Assay type: physicochemical
Conditions: 23° C.; for dissolution amount in CHN: cyclohexanone (CHN); for dissolution amount in PGME: propylene glycol monomethyl ether (PGME)
Description: The dissolution amounts of compounds obtained in the above synthesis examples 1 to 4 and syntheses 1 and 2 in propylene glycol monomethyl ether (PGME) and cyclohexanone (CHN) were evaluated as follows.
A: 5.0% by mass≦dissolution amount B: 3.0% by mass≦dissolution amount<5.0% by mass C: dissolution amount<3.0% by mass
dissolution amount (% by mass)=mass (g) of compound dissolved in 100 g of solvent of 23° C./(100 g of mass of solvent+mass (g) of compound dissolved in 100 g of solvent of 23° C.)×100

CC(C)c1ccc(C2c3cc(c(O)cc3O)C(c3ccc(C(C)C)cc3)c3cc(c(O)cc3O)C(c3ccc(C(C)C)cc3)c3cc(c(O)cc3O)C(c3ccc(C(C)C)cc3)c3cc2c(O)cc3O)cc1 (stereo not shown) [CR-1A]
dissolution amount in CHN: C (dissolution amount<3.0% by mass)
dissolution amount in PGME: B (3.0% by mass≦dissolution amount<5.0% by mass)

Oc1cc(O)c2cc1C(c1ccc(C3CCCCC3)cc1)c1cc(c(O)cc1O)C(c1ccc(C3CCCCC3)cc1)c1cc(c(O)cc1O)C(c1ccc(C3CCCCC3)cc1)c1cc(c(O)cc1O)C2c1ccc(C2CCCCC2)cc1 (stereo not shown) [CR-2A]
dissolution amount in CHN: B (3.0% by mass≦dissolution amount<5.0% by mass)
dissolution amount in PGME: B (3.0% by mass≦dissolution amount<5.0% by mass)
